# Experimental data as given in patent publication US12109207B2, “Methods of using 4(1H)-quinolone derivatives” (Academia Sinica, priority 2019, dated 2024).
# Like-named read-outs stand apart in the source and are kept apart here.
# What was measured:
# H1975 cells = test: Cell cytotoxicity assay (MTS), H1975; format: cell-based, human
# Method: (§1) Cells were seeded into the wells of 96-well plates (2000 cells/well). After an overnight culture, the cells were treated with different concentrations of a compound for 72 h. The CellTiter 96 AQueous one-solution cell proliferation assay (MTS) reagent was used to determine cytotoxicity. After treatment with a compound, 20 μL of the MTS reagent was added to each well and the plates were incubated at 37° C. for 1-4 h. Next, the absorbance at 490 nm of the culture medium in each well was determined using a VersaMax microplate reader (Molecular Devices).
# KBtax = test: Cell cytotoxicity assay (MTS), KBtax; format: cell-based, human; conditions: for IC50: Homo sapiens, KBtax, P-gp overexpressing, paclitaxel-selected KB subline; for RF, resistance factor (IC50 in resistant cell line/IC50 in parent cell line): KBtax vs KB
# Method: as §1
# KB = test: Cell cytotoxicity assay (MTS), KB; format: cell-based; conditions: Homo sapiens
# Method: as §1
# CCRF-CEM = test: Cell cytotoxicity assay (MTS), CCRF-CEM; format: cell-based; conditions: Homo sapiens
# Method: as §1
# CEM/VBL = test: Cell cytotoxicity assay (MTS), CEM/VBL; format: cell-based, human; conditions: for RF, resistance factor (IC50 in resistant cell line/IC50 in parent cell line): CEM/VBL vs CCRF-CEM; for IC50: Homo sapiens, CEM/VBL, P-gp overexpressing, vinblastine-selected CCRF-CEM subline
# Method: as §1
# KBvin = test: Cell cytotoxicity assay (MTS), KBvin; format: cell-based, human; conditions: for IC50: Homo sapiens, KBvin, P-gp overexpressing, vincristine-selected KB subline; for RF, resistance factor (IC50 in resistant cell line/IC50 in parent cell line): KBvin vs KB
# Method: as §1
# MDA-MB-231 = test: Cell cytotoxicity assay (MTS), MDA-MB-231; format: cell-based; conditions: Homo sapiens, MDA-MB-231, 72 h
# Method: as §1
# [1] = tested on: human fibroblast (HFB) cells; test: Cell cytotoxicity assay (MTS), human fibroblast; format: cell-based; conditions: normal cell line HFB
# Method: as §1
# Purified porcine tubulin = target: T1, Purified porcine tubulin (Sus scrofa, UniProt P02554); test: In vitro tubulin polymerization assay; format: biochemical; conditions: 5 μM, A340 every min for 1 h at 37° C.
# T1 construct: purchased Cytoskeleton
# Method: Reagents from a Tubulin Polymerization Assay kit (Cytoskeleton) were used according to the manufacturer's instructions. Purified porcine tubulin (4 mg/mL; >99% purity) in G-PEM buffer (80 mM PIPES, 2 mM MgCl2, 0.5 mM EGTA, 1 mM GTP, 15% glycerol, pH 6.9) was mixed with each test compound in the wells of a 96-well plate. Then, the A340 value was recorded each minute for 1 h at 37° C. with the VersaMax microplate reader.
# KBtax xenograft tumors = test: KBtax xenograft tumor model; format: in vivo, BALB/c nude mice; conditions: after 21 days, i.p. three times a week; paclitaxel 15 mg/kg, RJ-LC-15-8 8 mg/kg
# Method: Using the H1975, MDA-MB-231, and KBtax xenograft models, tumors were established after inoculation into the right flanks of 6-week-old BALB/c nude mice (NARLabs, Taipei, Taiwan). After establishment of the tumors, vehicle and test compounds, which had been dissolved in DMSO, were each injected intraperitoneally into a separate group of animals three times per week. The body mass of each animal and tumor volumes were measured before each drug delivery. Tumor volume was calculated as 0.5W^2L (with W being the width of the smaller diameter and L being the length of the larger diameter). The animal experiment was carried out in accordance with the procedures and guidelines of the Institutional Animal Care and Use Committee, Institute of Biomedical Sciences, Academia Sinica.
# [2] = Body mass and serum biochemical markers, KBtax xenograft mice; format: in vivo, BALB/c nude mice; conditions: end of experiment; paclitaxel 15 mg/kg, RJ-LC-15-8 8 mg/kg; mean ± SEM
# Method: The body mass of each animal and tumor volumes were measured before each drug delivery. Tumor volume was calculated as 0.5W^2L (with W being the width of the smaller diameter and L being the length of the larger diameter). The animal experiment was carried out in accordance with the procedures and guidelines of the Institutional Animal Care and Use Committee, Institute of Biomedical Sciences, Academia Sinica.
# HDQP1/TAX = test: Cell cytotoxicity assay, HDQP1/TAX; format: cell-based, human
# Method: as §1
# HDQP1 = test: Cell cytotoxicity assay, HDQP1; format: cell-based; conditions: Homo sapiens, HDQ-P1; TNBC cell line HDQP1
# Method: as §1
# [3] = Homo sapiens, NCI-H1975, H1975 cells, cell-based SAR study, read-out: IC50
# [4] = Homo sapiens, NCI-H1975, Table 8, cell line not given, values match H1975, read-out: IC50
# [5] = Homo sapiens, NCI-H1975, 72 h, H1975 cells, 72 h, MTS, read-out: IC50
# T1 sequence (P02554 whole entry): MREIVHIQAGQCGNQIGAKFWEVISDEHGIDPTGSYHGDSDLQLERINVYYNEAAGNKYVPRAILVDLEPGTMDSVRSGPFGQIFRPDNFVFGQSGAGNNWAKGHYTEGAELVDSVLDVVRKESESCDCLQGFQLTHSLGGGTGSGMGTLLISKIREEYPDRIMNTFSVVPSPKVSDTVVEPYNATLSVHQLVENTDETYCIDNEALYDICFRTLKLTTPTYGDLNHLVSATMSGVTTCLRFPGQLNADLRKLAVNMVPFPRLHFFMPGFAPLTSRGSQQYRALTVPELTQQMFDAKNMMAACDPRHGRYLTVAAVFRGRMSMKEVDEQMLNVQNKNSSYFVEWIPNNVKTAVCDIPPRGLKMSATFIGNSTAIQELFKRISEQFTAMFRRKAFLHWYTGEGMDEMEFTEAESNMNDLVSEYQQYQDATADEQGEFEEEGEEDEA
# T1 sequence (P02550 whole entry partner): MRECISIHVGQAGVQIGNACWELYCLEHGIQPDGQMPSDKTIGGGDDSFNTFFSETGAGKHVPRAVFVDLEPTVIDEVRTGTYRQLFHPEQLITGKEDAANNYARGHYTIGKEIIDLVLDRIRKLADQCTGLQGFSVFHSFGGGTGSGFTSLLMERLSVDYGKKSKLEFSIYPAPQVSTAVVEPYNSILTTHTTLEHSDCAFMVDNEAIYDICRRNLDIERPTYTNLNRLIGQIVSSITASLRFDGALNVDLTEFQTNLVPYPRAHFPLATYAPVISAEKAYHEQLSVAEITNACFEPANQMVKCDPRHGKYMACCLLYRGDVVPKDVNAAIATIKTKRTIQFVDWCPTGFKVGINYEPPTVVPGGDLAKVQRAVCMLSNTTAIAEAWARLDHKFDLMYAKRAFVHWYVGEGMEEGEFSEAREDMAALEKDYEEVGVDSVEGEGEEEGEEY
smiles,measurement,setting,value
"CCOC(=O)c1ccc2[nH]c(-c3cccc(O)c3)cc(=O)c2c1 [RJ-LC-15-11, Ethyl 2-(3-hydroxyphenyl)-4-oxo-1,4-dihydroquinoline-6-carboxylate]",IC50,H1975 cells; [3],1950 nM
same,IC50,H1975 cells; [4],1950 ± 200 nM
"CCOC(=O)c1ccc2[nH]c(-c3cccc(OC)c3)cc(=O)c2c1 [RJ-LC-15-7, Ethyl 2-(3-methoxyphenyl)-4-oxo-1,4-dihydroquinoline-6-carboxylate]",IC50,H1975 cells; [5],44 nM
same,IC50,H1975 cells; [4],44 ± 1 nM
"C/C(=C\c1csc(C)n1)[C@@H]1C[C@@H]2O[C@]2(C)CCC[C@H](C)[C@H](O)[C@@H](C)C(=O)C(C)(C)[C@@H](O)CC(=O)N1 [Ixabepilone, ixabepilone]",IC50,KBtax,35 ± 0.71 nM
same,"RF, resistance factor (IC50 in resistant cell line/IC50 in parent cell line)",KBtax,4.3
same,IC50,KB,8 ± 0.37 nM
same,IC50,CCRF-CEM,3 ± 0.06 nM
same,"RF, resistance factor (IC50 in resistant cell line/IC50 in parent cell line)",CEM/VBL,50
same,IC50,CEM/VBL,150 ± 6.59 nM
same,IC50,KBvin,193 ± 24.2 nM
same,"RF, resistance factor (IC50 in resistant cell line/IC50 in parent cell line)",KBvin,24
"O=C(O)c1ccc2[nH]c(-c3ccccc3)cc(=O)c2c1 [RJ-LC-15-21, Sodium 4-oxo-2-phenyl-1,4-dihydroquinoline-6-carboxylate]",IC50,"H1975 cells; Homo sapiens, NCI-H1975",> 10000 nM
"CCOC(=O)c1ccc2[nH]c(-c3cccc(Br)c3)cc(=O)c2c1 [RJ-LC-15-25, Ethyl 2-(3-bromophenyl)-4-oxo-1,4-dihydroquinoline-6-carboxylate]",IC50,H1975 cells; [4],70 ± 19 nM
"CCOC(=O)c1ccc2[nH]c(-c3ccc(O)cc3)cc(=O)c2c1 [RJ-LC-15-10, Ethyl 2-(4-hydroxyphenyl)-4-oxo-1,4-dihydroquinoline-6-carboxylate]",IC50,H1975 cells; [5],475 nM
same,IC50,H1975 cells; [4],475 ± 31 nM
"CC(C)OC(=O)c1ccc2[nH]c(-c3cccc(F)c3)cc(=O)c2c1 [RJ-LC-15-23, Isopropyl 2-(3-fluorophenyl)-4-oxo-1,4-dihydroquinoline-6-carboxylate]",IC50,MDA-MB-231,10 ± 0.5 nM
same,IC50,H1975 cells; [5],6 ± 2.16 nM
same,IC50,H1975 cells; [4],6 ± 2 nM
same,IC50,[1],> 10000 nM
"CCOCc1ccc2[nH]c(-c3ccccc3)cc(=O)c2c1 [RJ-LC-15-16, 6-(ethoxymethyl)-2-phenylquinolin-4(1H)-one]",IC50,H1975 cells; [5],810 nM
same,IC50,H1975 cells; [4],810 ± 120 nM
"CCOC(=O)c1cccc2[nH]c(-c3ccccc3)cc(=O)c12 [RJ-LC-15-17, Ethyl 4-oxo-2-phenyl-1,4-dihydroquinoline-5-carboxylate]",IC50,H1975 cells; [4],> 10000 nM
"CC(=O)O[C@H]1C(=O)[C@@]2(C)[C@H]([C@H](OC(=O)c3ccccc3)[C@]3(O)C[C@H](OC(=O)[C@H](O)[C@@H](NC(=O)c4ccccc4)c4ccccc4)C(C)=C1C3(C)C)[C@]1(OC(C)=O)CO[C@@H]1C[C@@H]2O [Paclitaxel, paclitaxel]",IC50,KBtax,101 ± 5.52 nM
same,"RF, resistance factor (IC50 in resistant cell line/IC50 in parent cell line)",KBtax,10
same,tubulin polymerization,Purified porcine tubulin,enhanced polymerization
same,average tumor size,KBtax xenograft tumors,868.7±121.4 mm^3
same,AST(IU/L),[2],102.8 ± 18.9 IU/L
same,BUN,[2],19 ± 1.3 mg/dL
same,Cre,[2],0.16 ± 0.02 mg/dL
same,IC50,CCRF-CEM,4 ± 0.02 nM
same,"RF, resistance factor (IC50 in resistant cell line/IC50 in parent cell line)",CEM/VBL,214
same,IC50,CEM/VBL,857 ± 9.89 nM
same,"RF, resistance factor (IC50 in resistant cell line/IC50 in parent cell line)",HDQP1/TAX; HDQP1/TAX vs HDQP1,167
same,IC50,"HDQP1/TAX; Homo sapiens, HDQ-P1, Paclitaxel-resistant subline",839 ± 142 nM
same,IC50,KBvin,708 ± 46.9 nM
same,"RF, resistance factor (IC50 in resistant cell line/IC50 in parent cell line)",KBvin,70
same,IC50,HDQP1,5 ± 3.05 nM
"CCOC(=O)c1ccc2[nH]c(-c3cccc(C(F)(F)F)c3)cc(=O)c2c1 [RJ-LC-15-9, Ethyl 4-oxo-2-(3-(trifluoromethyl)phenyl)-1,4-dihydroquinoline Carboxylate]",IC50,H1975 cells; [5],780 nM
same,IC50,H1975 cells; [4],780 ± 12 nM
"CCOC(=O)c1ccc2[nH]c(-c3ccccc3)cc(=O)c2c1 [RJ-LC-15-19, Ethyl 4-oxo-2-phenyl-1,4-dihydroquinoline-6-carboxylate Methane Sulfonate]",IC50,"H1975 cells; Table 8, cell line not given, values match H1975, read-out: IC50",69 ± 4 nM
"CCNC(=O)c1ccc2[nH]c(-c3cccc(F)c3)cc(=O)c2c1 [RJ-LC-15-27, N-ethyl-2-(3-fluorophenyl)-4-oxo-1,4-dihydroquinoline-6-carboxamide]",IC50,H1975 cells; [4],5600 ± 390 nM
"O=C(O)c1ccc2[nH]c(-c3cccc(F)c3)cc(=O)c2c1 [RJ-LC-15-26, 2-(3-fluorophenyl)-4-oxo-1,4-dihydroquinoline-6-carboxylic Acid]",IC50,H1975 cells; [4],> 10000 nM
"O=C(OCCOCCOCCOCCO)c1ccc2[nH]c(-c3ccccc3)cc(=O)c2c1 [RJ-LC-15-3, 2-(2-(2-(2-hydroxyethoxy)ethoxy)ethoxy)ethyl 4-oxo-2-phenyl-1,4-dihydro quinoline-6-carboxylate]",IC50,H1975 cells; [4],3300 ± 990 nM
"O=C(Oc1ccccc1)c1ccc2[nH]c(-c3cccc(F)c3)cc(=O)c2c1 [RJ-LC-15-24, Phenyl 2-(3-fluorophenyl)-4-oxo-1,4-dihydroquinoline-6-carboxylate]",IC50,H1975 cells; [4],300 ± 8 nM
"CCOC(=O)c1ccc2[nH]c(-c3ccc(Br)cc3)cc(=O)c2c1 [RJ-LC-15-6, Ethyl 2-(4-bromophenyl)-4-oxo-1,4-dihydroquinoline-6-carboxylate]",IC50,H1975 cells; [3],4500 nM
same,IC50,H1975 cells; [4],4500 ± 900 nM
"O=C(O)c1ccc2[nH]c(-c3ccccc3)cc(=O)c2c1 [RJ-LC-15-1, 4-oxo-2-phenyl-1,4-dihydroquinoline-6-carboxylic Acid]",IC50,H1975 cells; [3],> 5000 nM
same,IC50,H1975 cells; [4],> 5000 nM
"CCOC(=O)c1ccc2c(=O)cc(-c3ccccc3)[nH]c2c1 [RJ-LC-15-18, Ethyl 4-oxo-2-phenyl-1,4-dihydroquinoline-7-carboxylate]",IC50,H1975 cells; [4],97 ± 3 nM
"CCOC(=O)c1ccc2[nH]c(-c3ccc(OC)cc3)cc(=O)c2c1 [RJ-LC-15-4, Ethyl 2-(4-methoxyphenyl)-4-oxo-1,4-dihydroquinoline-6-carboxylate]",IC50,H1975 cells; [3],2200 nM
same,IC50,H1975 cells; [4],2200 ± 200 nM
"COC(=O)c1ccc2[nH]c(-c3ccccc3)cc(=O)c2c1 [RJ-LC-15-14, Methyl 4-oxo-2-phenyl-1,4-dihydroquinoline-6-carboxylate]",IC50,H1975 cells; [5],207 nM
same,IC50,H1975 cells; [4],207 ± 39 nM
"CCNC(=O)c1ccc2[nH]c(-c3ccccc3)cc(=O)c2c1 [RJ-LC-15-2, N-ethyl-4-oxo-2-phenyl-1,4-dihydroquinoline-6-carboxamide]",IC50,H1975 cells; [3],3700 nM
same,IC50,H1975 cells; [4],3700 ± 730 nM
"CCOC(=O)c1ccc2[nH]c(-c3ccc(F)cc3)cc(=O)c2c1 [RJ-LC-15-5, Ethyl 2-(4-fluorophenyl)-4-oxo-1,4-dihydroquinoline-6-carboxylate]",IC50,H1975 cells; [3],2100 nM
same,IC50,H1975 cells; [4],2100 ± 210 nM
"COC(=O)c1ccc2[nH]c(-c3cccc(F)c3)cc(=O)c2c1 [RJ-LC-15-22, Methyl 2-(3-fluorophenyl)-4-oxo-1,4-dihydroquinoline-6-carboxylate]",IC50,H1975 cells; [4],27 ± 6 nM
"CCOC(=O)c1ccc2[nH]c(-c3cccc(F)c3)cc(=O)c2c1 [RJ-LC-15-20, Ethyl 2-(3-fluorophenyl)-4-oxo-1,4-dihydroquinoline-6-carboxylate Methanesulfonate]",IC50,"H1975 cells; Table 8, cell line not given, values match H1975, Methanesulfonate, read-out: IC50",42 ± 4 nM
"CC(C)OC(=O)c1ccc2[nH]c(-c3ccccc3)cc(=O)c2c1 [RJ-LC-15-15, Isopropyl 4-oxo-2-phenyl-1,4-dihydroquinoline-6-carboxylate]",IC50,H1975 cells; [5],48 nM
same,IC50,H1975 cells; [4],48 ± 5 nM
